78 substances from patent publication US20230357447A1, “TUMOR ACTIVATED MULTISPECIFIC ANTIBODIES FOR TARGETING CD28 AND PD-L1 AND METHODS OF USE THEREOF” (Janux Therapeutics, Inc., priority 2022, published 2023) can be followed below.

This test concerns anti-CD28 scFv. The test can be described thus: Phage binding ELISA (panning) of clonal phage on anti-CD28 scFv, with or without CD28 soluble protein. The settings on record: clonal phage supernatant; background signal. On the procedure:
Clonal phage were harvested as crude supernatants and screened via standard enzyme linked immunosorbent assays (ELISAs). […] Prior to the addition of clonal phage, wells were incubated with blocking buffer and CD28 soluble protein or blocking buffer alone. Without washing or aspirating, clonal phage supernatants were then added to the wells and incubated for a short time. Wells were then washed followed by detection of bound phage using a horse radish peroxidase conjugated anti-M13 antibody. Clonal phage of interest were then sent for sequence analysis.
As for Phage-228 (ITWCHVISGLECWN), the “Phage binding ELISA Backgroud signal” value is listed as 0.076.
Take Phage-229 (VPWCQIISGLECLT): the “Phage binding ELISA Backgroud signal” value was 0.076.
As to Phage-230 (APWCQIISGLECLT), the “Phage binding ELISA Backgroud signal” value came to 0.080.
The same measure for Phage-231 (VPWCLIISGLDCLN): 0.455; for Phage-232 (MDWCARFVGYGCLD): 0.948.
Regarding Phage-233 (MTWCPTSFWNRCLD), the “Phage binding ELISA Backgroud signal” value was determined as 0.142.
As for Phage-234 (MDWCPRALWFECFF), the “Phage binding ELISA Backgroud signal” value is recorded as 0.111.
Regarding Phage-235 (MDWCPRYLWHECFS), the “Phage binding ELISA Backgroud signal” value is recorded as 0.063.
As to Phage-236 (MDWCPRDLWNLCFF), the “Phage binding ELISA Backgroud signal” value was determined as 0.084.
Phage-237 (MDWCPSYLWHECFF): the “Phage binding ELISA Backgroud signal” value came to 0.067.
Phage-238 (MDWCPPYLWSECFA): the “Phage binding ELISA Backgroud signal” value is 0.539.
With Phage-239 (MDWCPRYLWHVCFN), the “Phage binding ELISA Backgroud signal” value stood at 0.187.
With Phage-240 (MDWCPRTLWHVCFN), the “Phage binding ELISA Backgroud signal” value worked out at 0.317.
Regarding Phage-241 (MDWCPRHLWHECYS), the “Phage binding ELISA Backgroud signal” value is recorded as 0.066.
Regarding Phage-242 (MDWCPKHLWTECFA), the “Phage binding ELISA Backgroud signal” value stood at 0.098.
With Phage-243 (MDWCPRHLWYECFN) the figure was 0.063; with Phage-244 (MDWCPRYLWHECFD), 0.071; with Phage-245 (MDWCPRNLWHLCFA), 0.082.
With Phage-246 (MDWCPKHLWNKCFN) the figure was 0.075.
Regarding Phage-247 (MDWCPRFMWAECFN), the “Phage binding ELISA Backgroud signal” value is given as 0.073.
As for Phage-248 (MDWCPRNMWHHCFD), the “Phage binding ELISA Backgroud signal” value turned out to be 0.205.
For the substance Phage-249 (MDWCPSDMWAHCYN), the “Phage binding ELISA Backgroud signal” value was 0.191.
Regarding Phage-250 (MDWCPKVMWHYCFA), the “Phage binding ELISA Backgroud signal” value is recorded as 0.136.
As to Phage-251 (MDWCPRFMWSECFS), the “Phage binding ELISA Backgroud signal” value was 0.092.
For the substance Phage-252 (MDWCPRHMWINCFA), the “Phage binding ELISA Backgroud signal” value is given as 0.091.
In the case of Phage-253 (MVGCATSMWNRCLT), the “Phage binding ELISA Backgroud signal” value turned out to be 0.256.
As to Phage-254 (MDWCPRYLWSECFA), the “Phage binding ELISA Backgroud signal” value is reported as 0.078.
Turning to Phage-255 (MDWCPRHLWSVCFN), the “Phage binding ELISA Backgroud signal” value is reported as 0.064.
With Phage-256 (MDWCPFDLWHVCYN) the figure was 0.089; with Phage-257 (MDWCPRFLWHECFN), 0.079; with Phage-258 (MDWCPRSLWHVCFN), 0.098.
Take Phage-259 (MDWCPRNLWHACFN): the “Phage binding ELISA Backgroud signal” value was found to be 0.071.
Turning to Phage-260 (MDWCPVFMWNECFN), the “Phage binding ELISA Backgroud signal” value is given as 0.079.
Regarding Phage-261 (MDWCPMFMWHECFN), the “Phage binding ELISA Backgroud signal” value stood at 0.102.
For the substance Phage-262 (MYWCATSMWNRCFV), the “Phage binding ELISA Backgroud signal” value was determined as 0.248.
On to Phage-263 (MDWCPRHMWHECFA), for which the “Phage binding ELISA Backgroud signal” value came to 0.074.
As to Phage-264 (MDWCPRHLWHVCFN), the “Phage binding ELISA Backgroud signal” value was 0.070.
For the substance Phage-265 (MDWCPRFMWDLCFA), the “Phage binding ELISA Backgroud signal” value came out at 0.270.
Turning to Phage-266 (VTSCPTTMWNRCFS), the “Phage binding ELISA Backgroud signal” value was determined as 0.396.
With Phage-267 (MTLCLSVDLVHCWY), the “Phage binding ELISA Backgroud signal” value is 0.114.
As to Phage-269 (DSFCTWSAWQECGR), the “Phage binding ELISA Backgroud signal” value is listed as 0.072.
As to Phage-270 (MDWCPRDFWAFCFF), the “Phage binding ELISA Backgroud signal” value came to 0.118.
The same measure for Phage-271 (MDWCPTSFWNRCFH): 0.102; for Phage-272 (MVWCMSVGWAVCLN): 0.289.
Turning to Phage-274 (WVSCLRHHWLECFH), the “Phage binding ELISA Backgroud signal” value is recorded as 0.781.
As to Phage-275 (MDWCPRDHWVDCYS), the “Phage binding ELISA Backgroud signal” value stood at 0.172.
The same measure for Phage-276 (IDWCPKIHWDLCYF): 0.072; for Phage-277 (MDWCPRSHWSECFS): 0.080.
As for Phage-279 (MDWCPRYLWAECFN), the “Phage binding ELISA Backgroud signal” value came to 0.068.
As to Phage-280 (MDWCPRYLWDYCFA), the “Phage binding ELISA Backgroud signal” value was determined as 0.073.
Take Phage-281 (MDWCPRSLWFLCFN): the “Phage binding ELISA Backgroud signal” value amounted to 1.110.
The same measure for Phage-282 (MDWCPRDLWFACFA): 0.060.
For the substance Phage-283 (MDWCPRHLWNECFN), the “Phage binding ELISA Backgroud signal” value turned out to be 0.079.
Take Phage-284 (MDWCPRFLWHVCFS): the “Phage binding ELISA Backgroud signal” value is 2.091.
As for Phage-285 (MDWCPRDLWAMCFA), the “Phage binding ELISA Backgroud signal” value is reported as 0.071.
With Phage-286 (MERCPRYLWHMCYS) the figure was 0.164; with Phage-288 (MDWCPIALWDFCFA), 0.073.
For Phage-290 (MDWCPRDLWSVCFS), the “Phage binding ELISA Backgroud signal” value was determined as 0.090.
With Phage-291 (MDWCPRYLWHVCFY), the “Phage binding ELISA Backgroud signal” value was 0.227.
Consider Phage-292 (MDWCPRALWDHCFF), for which the “Phage binding ELISA Backgroud signal” value was found to be 0.081.
Phage-293 (MDWCPRHLWFECFN): the “Phage binding ELISA Backgroud signal” value is on record as 0.064.
For Phage-294 (MDWCPRSLWDYCFA), the “Phage binding ELISA Backgroud signal” value is given as 0.115.
Turning to Phage-299 (MDWCPIYLWAECFN), the “Phage binding ELISA Backgroud signal” value came out at 0.078.
Regarding Phage-300 (MDWCPRHLWFECFF), the “Phage binding ELISA Backgroud signal” value worked out at 0.178.
As to Phage-301 (MDWCPRYLWHECFF), the “Phage binding ELISA Backgroud signal” value is on record as 0.082.
Phage-302 (MDWCPRYLWHVCFD): the “Phage binding ELISA Backgroud signal” value is 0.068.
Phage-303 (MDWCPRYLWTECFS): the “Phage binding ELISA Backgroud signal” value was found to be 0.074.
Take Phage-304 (MDWCPKFLWDECFA): the “Phage binding ELISA Backgroud signal” value is on record as 0.311.
Phage-305 (MDWCPRDLWTECFS): the “Phage binding ELISA Backgroud signal” value came to 0.080.
With Phage-306 (MDWCPRHLWNECFA) the figure was 0.068; with Phage-307 (MDWCPRYLWPVCFH), 0.179.
In the case of Phage-308 (MDWCPKSLWAECFN), the “Phage binding ELISA Backgroud signal” value stood at 0.395.
Phage-309 (MDWCPMFLWHECFN): the “Phage binding ELISA Backgroud signal” value was found to be 0.170.
For the substance Phage-310 (MDWCPRDLWDECFN), the “Phage binding ELISA Backgroud signal” value is given as 0.066.
For the substance Phage-311 (MDWCPRDLWYQCFN), the “Phage binding ELISA Backgroud signal” value is on record as 0.069.
Take Phage-313 (MDWCPRSLWNYCFN): the “Phage binding ELISA Backgroud signal” value is recorded as 0.076.
In the case of Phage-314 (MDWCPIHLWNECFN), the “Phage binding ELISA Backgroud signal” value was found to be 0.074.
With Phage-315 (MDWCPTYLWHVCFS), the “Phage binding ELISA Backgroud signal” value is reported as 0.089.
